Laboratory results reported in patent US6545029B2, “Phenylserine derivatives as integrin antagonists” (Bayer Aktiengesellschaft, priority 2000, dated 2003).

Target: T1, αvβ3 from human placenta (Homo sapiens, UniProt P05106+P06756)
T1 construct: αvβ3 from human placenta; from tissue; host or cells: human placenta
Test: αvβ3/echistatin binding inhibition (I125-echistatin, scintillation proximity beads)
Settings: inhibition of I125-echistatin binding to αvβ3; 1 hour at room temperature; determined in duplicate from concentration series
Procedure: The substances were tested for their ability to inhibit αvβ3/echistatin binding analogously to Kumar C. C., Nie H. M., Rogers G. P., Malkowski M., Maxwell E., Catino J. J. and Armstrong L. (Journal of Pharmacology and Experimental Therapeutics 283(2)(1997)843-853).
αvβ3 from human placenta (Smith J. W. and Cheresh, D. A. (1988), J. Biol. Chem. 263, 18726-18732) (1 mg/ml 50 mM tris HCl pH 7.4, 100 mM NaCl, 2 mM CaCl2, 1% and octylglucoside) was diluted with test buffer (50 mM tris-HCl pH 7.4, 100 mM NaCl, 1 mM CaCl2, 1 mM MgCl2, 1 mM MnCl2, 0.1% bovine serum albumin) and 55 μl each of this αvβ3 solution were added to the wells of a 96-well microtiter plate (about 0.1-0.3 μg of αvβ3 per well). 2 μl of the substances to be tested dissolved in DMSO were then added. 10 μl (40,000 cpm) of I^125-echistatin per well were then added and the mixture was incubated for 1 hour at room temperature with careful shaking. It was then treated with 100 μg of wheatgerm-coated yttrium silicate beads (Amersham, type RPNQ0011) in 25 μl of distilled water. After 1 hour at room temperature, the cpm values were measured in a scintillation counter. The Ki values were determined in duplicate from concentration series. The nonspecific binding was determined in the presence of 0.1 μM unlabeled echistatin or by addition of 5 mM EDTA to the binding mixture.

T1 sequence (P06756 31-889 limits assumed): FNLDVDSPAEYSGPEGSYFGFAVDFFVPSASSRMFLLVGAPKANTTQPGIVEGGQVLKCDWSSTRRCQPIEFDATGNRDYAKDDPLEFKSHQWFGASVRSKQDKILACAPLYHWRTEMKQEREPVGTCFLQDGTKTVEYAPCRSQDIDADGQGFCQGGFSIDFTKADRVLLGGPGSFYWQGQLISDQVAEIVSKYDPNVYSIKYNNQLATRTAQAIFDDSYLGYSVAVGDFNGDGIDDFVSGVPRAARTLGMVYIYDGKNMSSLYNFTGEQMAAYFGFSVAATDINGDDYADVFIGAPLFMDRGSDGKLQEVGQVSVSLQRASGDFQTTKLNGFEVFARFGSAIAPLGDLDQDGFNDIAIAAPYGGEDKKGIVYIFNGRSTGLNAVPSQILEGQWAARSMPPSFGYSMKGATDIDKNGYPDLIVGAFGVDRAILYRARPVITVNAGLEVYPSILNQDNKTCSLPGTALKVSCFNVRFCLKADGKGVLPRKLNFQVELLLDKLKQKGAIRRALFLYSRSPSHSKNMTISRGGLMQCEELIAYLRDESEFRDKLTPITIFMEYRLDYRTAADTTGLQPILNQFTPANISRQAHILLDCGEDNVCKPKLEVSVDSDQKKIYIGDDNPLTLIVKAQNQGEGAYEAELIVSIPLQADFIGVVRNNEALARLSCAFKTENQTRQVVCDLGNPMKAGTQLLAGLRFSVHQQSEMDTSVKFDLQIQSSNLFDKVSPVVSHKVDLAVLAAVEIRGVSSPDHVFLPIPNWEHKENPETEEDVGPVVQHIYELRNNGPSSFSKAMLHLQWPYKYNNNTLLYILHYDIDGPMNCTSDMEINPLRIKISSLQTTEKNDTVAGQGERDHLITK
T1 sequence (P06756 891-1048 partner limits assumed): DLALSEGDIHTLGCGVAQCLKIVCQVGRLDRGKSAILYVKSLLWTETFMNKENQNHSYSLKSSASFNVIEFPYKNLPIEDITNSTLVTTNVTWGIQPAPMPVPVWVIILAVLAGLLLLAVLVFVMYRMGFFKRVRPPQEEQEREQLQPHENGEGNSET
T1 sequence (P05106 27-788): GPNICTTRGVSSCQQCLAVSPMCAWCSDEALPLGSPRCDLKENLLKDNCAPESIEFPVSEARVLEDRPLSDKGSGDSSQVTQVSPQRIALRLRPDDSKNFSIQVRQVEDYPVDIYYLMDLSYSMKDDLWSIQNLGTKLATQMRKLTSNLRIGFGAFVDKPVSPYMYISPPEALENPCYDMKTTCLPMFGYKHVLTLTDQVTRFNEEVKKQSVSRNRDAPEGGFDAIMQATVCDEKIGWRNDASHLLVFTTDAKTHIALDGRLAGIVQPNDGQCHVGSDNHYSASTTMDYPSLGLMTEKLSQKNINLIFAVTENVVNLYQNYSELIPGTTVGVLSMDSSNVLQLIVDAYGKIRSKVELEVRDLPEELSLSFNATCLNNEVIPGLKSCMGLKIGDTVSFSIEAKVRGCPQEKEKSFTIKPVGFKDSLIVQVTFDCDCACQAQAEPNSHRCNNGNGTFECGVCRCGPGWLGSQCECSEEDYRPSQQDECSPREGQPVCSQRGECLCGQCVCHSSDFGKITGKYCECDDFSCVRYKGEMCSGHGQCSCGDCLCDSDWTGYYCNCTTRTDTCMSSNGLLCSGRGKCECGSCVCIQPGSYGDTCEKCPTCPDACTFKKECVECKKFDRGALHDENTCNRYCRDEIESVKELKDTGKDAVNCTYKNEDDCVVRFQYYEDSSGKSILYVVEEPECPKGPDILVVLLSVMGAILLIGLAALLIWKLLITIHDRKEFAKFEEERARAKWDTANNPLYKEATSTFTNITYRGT

## CCCNC(=O)Nc1cccc(-c2ccc(OC[C@H](NS(=O)(=O)c3c(C)cc(C)cc3C)C(=O)O)cc2)c1 [Example 20, N-(Mesitylsulfonyl)-O-(3′-{[(propylamino)carbonyl]amino}-1,1′-biphenyl-4-yl)-L-serine]
  Ki: 4 nM
